Measured values as given in patent publication US20240115629A1, “ORAL COMPOSITION” (BLIS TECHNOLOGIES LIMITED, priority 2021, published 2024).

Each compound was assayed on BLIS M18 and K12 (assay: Comparison of foaming agents: inhibition on agar plates). Conditions: 10 μL spotted on CABK12 and BaCa agar plates, 37° C. 5% CO2, 24 hrs.
Type: cell-based, Streptococcus salivarius
Description: Samples were prepared by • 1. mixing 1.1 g of BLIS M18 with 9.9 g of phosphate buffered saline (PBS) for 5 min and diluting by 1 in 10 with PBS • 2. adding to CABK12 and BaCa agar plates • 3. spotting 10 μL of foaming agent to plates and incubating at 37° C. 5% CO2 for 24 hrs, • 4. determining inhibition
In the case of `CCCCCCCCO[C@@H]1O[C@H](CO)[C@@H](O)[C@H](O)[C@H]1O` [Caprylyl glucoside], the “Inhibitory to BLIS M18 and K12” value is reported as “Yes”. For `CCCCCCCCCCO[C@@H]1O[C@H](CO)[C@@H](O)[C@H](O)[C@H]1O` [Decyl Glucoside], the “Inhibitory to BLIS M18 and K12” value was “Yes”. `CCCCCCCC/C=C\CCCCCCCC(=O)OCCOCC(OCCO)C1OCC(OCCO)C1OCCO` (stereo not shown) [Polysorbate 80] was tested, and the “Inhibitory to BLIS M18 and K12” value was “No”. In the case of `CCCCCCCCCCCCOS(=O)(=O)[O-].[Na+]` [Sodium Lauryl Sulphate], the “Inhibitory to BLIS M18 and K12” value is reported as “Yes”. Coco Glucoside was tested, and the “Inhibitory to BLIS M18 and K12” value was “Yes”. In the case of Lauryl glucoside, the “Inhibitory to BLIS M18 and K12” value is reported as “Yes”. In the case of Sodium Cocyl Isethionate, the “Inhibitory to BLIS M18 and K12” value is reported as “Yes”.
